Measured values published in patent publication US12264170B2, “Antimicrobial organosilanes” (TOPIKOS SCIENTIFIC, INC., priority 2019, dated 2025).
“And” between values parts separate entries of the source, which are not always exact repeats. Identical values can stand only once.

Columns and labels:
pH of aqueous solution = format: physicochemical; conditions: 2% solution in water
[1] = Dissolution of isolated product in water; format: physicochemical; conditions: observation
P. aeruginosa ATCC 27853 [2] = assay: MBC/MFC determination; format: cell-based, Pseudomonas aeruginosa; conditions: plated after 18 to 20 hours incubation, two values given
Protocol: (§1) 10 μL of liquid from each test condition was plated on the appropriate agar media for each test strain. For bacteria strains, plating for MBC occurred after 18 to 20 hours incubation. For the Candida species, plating for MFC occurred after 48 hours incubation, while C. herbarum plating for MFC occurred 3 days after incubation when growth in growth control wells was visually observed. Once the liquid from the 96-well plate has been allowed to air dry in a biosafety cabinet, the agar plates were incubated under the appropriate conditions and colony formation was assessed. MBC/MFC is defined as the lowest concentration of a compound in which no colonies were recovered.

P. aeruginosa ATCC 27853 [3] = assay: MIC microdilution assay; format: cell-based, Pseudomonas aeruginosa; conditions: CAMHB, 35±2° C. 18 to 20 hours, two values given
Protocol: (§2) Strain numbers starting with “ATCC” were acquired from the American Type Culture Collection (Manassas, VA), while strain numbers starting with “CDC” were acquired from the Centers for Disease Control and Prevention (Atlanta, GA). All strains were maintained as −80° C. frozen glycerol stocks. S. aureus and P. aeruginosa were grown overnight on Tryptic Soy Agar (TSA) plates at 35±2° C., ambient atmosphere, while S. pyogenes was grown overnight on TSA+5% defibrinated sheep blood at 35±2° C., 5% CO2. All fungal species (i.e. C. albicans, C. auris and C. herbarum) were grown on Sabouraud Dextrose Agar (SDA) plates. C. herbarum was grown at 25±2° C. for 5 to 7 days, while all other fungal strains were grown at 35±2° C. overnight.
(§3) Test articles Compound 2 (batch #2G13A0.368) and Compound 23 (batch #2G17A0.372) were received and stored at 4° C. The antibiotic Tobramycin and antifungal Amphotericin B were used as quality control (QC) compounds for the MIC assay. Stock solutions of 3.2 mg/mL Tobramycin (Sigma-Aldrich, cat #T1783-500MG) and 3.2 mg/mL Amphotericin B (CP Lab Chemicals, cat #TOK-A007-1G) were prepared in sterile ultrapure water.
(§4) For bacteria strains, a few colonies of each strain were collected with a sterile swab and used to make a McFarland 0.5 standard solution (approximately 1×10^8 CFU/mL) in sterile PBS. The McFarland was then diluted 1:180 in Cation Adjusted Muller-Hinton Broth (CAMHB) for S. aureus and P. aeruginosa, and in […]+5% defibrinated sheep blood for S. pyogenes. 90 μL of this inoculum was combined with 10 μL of the 10× test article in a 96-well plate for a final concentration of 1×.
(§5) All bacterial-strain MIC 96-well plates were incubated at 35±2° C. for 18 to 20 hours, while all Candida MIC 96-well plates were incubated at 35±2° C. for 24 to 48 hours. C. herbarum MIC 96-well plates were incubated at 25±2° C. for 3 to 5 days, until growth was visible in the growth control wells. After incubation, the 96-well plates were examined visually and on a spectrophotometer at absorbance OD650. […]

[4] = system: Cladosporium herbarum ATCC MYA-4682; assay: MBC/MFC determination; format: cell-based; conditions: C. herbarum ATCC MYA-4682; plated 3 days after incubation; two values given
Protocol: as §1

Candida auris CDC 0381 [5] = assay: MBC/MFC determination; format: cell-based; conditions: C. auris CDC 0381; plated after 48 hours incubation; two values given
Protocol: as §1

[6] = system: Candida albicans ATCC 90028; assay: MBC/MFC determination; format: cell-based; conditions: C. albicans ATCC 90028; plated after 48 hours incubation; two values given
Protocol: as §1

S. pyogenes ATCC 51339 = assay: MBC/MFC determination; format: cell-based, Steptococcus pyogenes; conditions: plated after 18 to 20 hours incubation, two values given
Protocol: as §1

Candida auris CDC 0381 [7] = assay: MIC microdilution assay; format: cell-based; conditions: C. auris CDC 0381; RPMI media; 35±2° C. 24 to 48 hours; two values given
Protocol: as §2, §3, §4
For the yeasts C. albicans and C. auris, a McFarland 0.5 standard solution in sterile PBS was similarly prepared (approximately 1×10^6 CFU/mL) and was subsequently diluted 1:180 in RPMI 1640 media buffered with 0.165 M MOPS at pH 7.0 (herein referred to as “RPMI media”). 90 μL of the Candida inoculum was combined with 10 μL of the 10× test article in a 96-well plate for a final concentration of 1×.
All bacterial-strain MIC 96-well plates were incubated at 35±2° C. for 18 to 20 hours, while all Candida MIC 96-well plates were incubated at 35±2° C. for 24 to 48 hours. C. herbarum MIC 96-well plates were incubated at 25±2° C. for 3 to 5 days, until growth was visible in the growth control wells. After incubation, the 96-well plates were examined visually and on a spectrophotometer at absorbance OD650. MIC is defined as the lowest concentration of a compound in which no visible growth is observed.

[8] = system: Staphylococcus aureus ATCC 33591; assay: MIC microdilution assay; format: cell-based; conditions: S. aureus ATCC 33591; CAMHB; 35±2° C. 18 to 20 hours; two values given
Protocol: as §2, §3, §4, §5

Row | Structure (SMILES) | pH of solution (pH of aqueous solution) | dissolution in water [1] | MBC/MFC (P. aeruginosa ATCC 27853 [2]) [µg/mL] | MIC (P. aeruginosa ATCC 27853 [3]) [µg/mL] | MBC/MFC [4] [µg/mL] | MBC/MFC (Candida auris CDC 0381 [5]) [µg/mL] | MBC/MFC [6] | MBC/MFC (S. pyogenes ATCC 51339) | MIC (Candida auris CDC 0381 [7]) [µg/mL] | MIC [8] [µg/mL]
1 | CCCCCCCCCCCCCCCCCC[N+](C)(C)CCC[Si](OCC(CO)(CO)NCC(O)CS(=O)(=O)[O-])(OCC(CO)(CO)NCC(O)CS(=O)(=O)O)OCC(CO)(CO)NCC(O)CS(=O)(=O)O (stereo not shown) [Example 24, monosodium mono(8-(3-(dimethyl(octadecyl)ammonio)propyl)-2,14-dihydroxy-8-(3-hydroxy-2-((2-hydroxy-3-sulfopropyl)amino)-2-(hydroxymethyl)propoxy)-5,5,11,11-tetrakis(hydroxymethyl)-7,9-dioxa-4,12-diaza-8-silapentadecane-1,15-disulfonate); chloride] | 7.65 | readily dissolved in water |  |  |  |  |  |  |  | 
2 | CCCCCCCCCCCCCCCCCC[N+](C)(C)CCC[Si](OCC(CO)(CO)NCC(O)CS(=O)(=O)[O-])(OCC(CO)(CO)NCC(O)CS(=O)(=O)[O-])OCC(CO)(CO)NCC(O)CS(=O)(=O)O.[Cl-].[Na+].[Na+] (stereo not shown) [Compound 2] |  |  | >64 | >64 | 2 | 1 | 2 µg/mL and 1 µg/mL | >64 µg/mL and 64 µg/mL | 1 | 1
